Experimental data reported in patent US12643859B2, “Pyridyl oxycarboxylic acid oxime derivative and preparation method therefor, weeding composition and application thereof” (Qingdao Kingagroot Chemical Compound Co., Ltd., priority 2018, dated 2026).

Experiments:
Format in all cases: in vivo
Indica rice = assay: Post-emergence test experiment, crop selectivity; conditions: post-emergence spray, 600 g a.i./ha plus water 450 kg/ha, 3 weeks in greenhouse
Procedure: (§1) The above described growth inhibition rate is fresh weight inhibition rate.
(§2) Post-emergence test experiment: Monocotyledonous and dicotyledonous weed seeds and main crop seeds (i. e. wheat, corn, rice, soybean, cotton, oilseed, millet and sorghum.) were put into a plastic pot loaded with soil. Then covered with 0.5-2 cm soil, the seeds were allowed to grow in good greenhouse environment. The test plants were treated at 2-3 leaf stage 2 weeks after sowing. The test compounds of the invention were dissolved with acetone respectively, then added with tween-80, and using 1.5 liters per hectare of an emulsible concentrate of methyl oleate as a synergist, and diluted by certain amount of water to certain concentration. The solution was sprayed to the plants with a sprayer. Then the plants were cultured for 3 weeks in the greenhouse, and the experiment result of weed controlling effect was listed in tables 3-4.

Japonica rice = assay: Post-emergence test experiment, crop selectivity; conditions: post-emergence spray, 600 g a.i./ha plus water 450 kg/ha, 3 weeks in greenhouse
Procedure: as §1, §2

Cyperus iria = assay: Post-emergence test experiment, weed control; conditions: post-emergence spray, 600 g a.i./ha plus water 450 kg/ha, 3 weeks in greenhouse
Procedure: as §1, §2

[1] = test system: Monocotyledonous and dicotyledonous weed seeds and main crop seeds; assay: Post-emergence test experiment (Table 3, 1000 g a.i./ha); conditions: 3 weeks in greenhouse, fresh weight inhibition
Procedure: as §1, §2

| SMILES | Activity level (fresh weight growth inhibition rate), Indica rice (Indica rice) | Activity level (fresh weight growth inhibition rate), Japonica rice (Japonica rice) | Activity level (fresh weight growth inhibition rate), Cyperus iria (Cyperus iria) | Activity level (growth inhibition rate) Digitaria sanguinalis [1] | Activity level (growth inhibition rate) Echinochloa crusgalli [1] | Activity level (growth inhibition rate) Galium spurium [1] | Activity level (growth inhibition rate) Leptochloa chinensis [1] | Activity level (growth inhibition rate) Monochoria Vaginalis [1] | Activity level (growth inhibition rate) Murdannia triquetra [1] | Activity level (growth inhibition rate) Setaria viridis [1] |
| --- | --- | --- | --- | --- | --- | --- | --- | --- | --- | --- |
| CC(Oc1nc(F)c(Cl)c(N)c1Cl)C(=O)ON=C(c1ccc(N(C)C)cc1)[N+](=O)[O-] (stereo not drawn) [Compound 90] | 0 (Level 0: the growth inhibition rate is less than 5%) | 0 (Level 0: the growth inhibition rate is less than 5%) | 5 (Level 5: the growth inhibition rate is greater than 85%) | 5 (Level 5: the growth inhibition rate is greater than 85%) | 5 (Level 5: the growth inhibition rate is greater than 85%) | 5 (Level 5: the growth inhibition rate is greater than 85%) | 5 (Level 5: the growth inhibition rate is greater than 85%) | 5 (Level 5: the growth inhibition rate is greater than 85%) | 5 (Level 5: the growth inhibition rate is greater than 85%) | 5 (Level 5: the growth inhibition rate is greater than 85%) |
| CC(Oc1nc(F)c(Cl)c(N)c1Cl)C(=O)ON=C(C#N)c1ccc(Cl)cc1 (stereo not drawn) [Compound 87] | 0 (Level 0: the growth inhibition rate is less than 5%) | 0 (Level 0: the growth inhibition rate is less than 5%) | 5 (Level 5: the growth inhibition rate is greater than 85%) | 5 (Level 5: the growth inhibition rate is greater than 85%) | 5 (Level 5: the growth inhibition rate is greater than 85%) | 5 (Level 5: the growth inhibition rate is greater than 85%) | 5 (Level 5: the growth inhibition rate is greater than 85%) | 5 (Level 5: the growth inhibition rate is greater than 85%) | 5 (Level 5: the growth inhibition rate is greater than 85%) | 5 (Level 5: the growth inhibition rate is greater than 85%) |
| CC=COc1ccc(C(=NOC(=O)C(C)Oc2nc(F)c(Cl)c(N)c2Cl)C(=O)OCC)cc1 (stereo not drawn) [Compound 92] | 0 (Level 0: the growth inhibition rate is less than 5%) | 0 (Level 0: the growth inhibition rate is less than 5%) | 5 (Level 5: the growth inhibition rate is greater than 85%) | 5 (Level 5: the growth inhibition rate is greater than 85%) | 5 (Level 5: the growth inhibition rate is greater than 85%) | 5 (Level 5: the growth inhibition rate is greater than 85%) | 5 (Level 5: the growth inhibition rate is greater than 85%) | 5 (Level 5: the growth inhibition rate is greater than 85%) | 5 (Level 5: the growth inhibition rate is greater than 85%) | 5 (Level 5: the growth inhibition rate is greater than 85%) |
| CCCC(Cl)=NOC(=O)C(C)Oc1nc(F)c(Cl)c(N)c1Cl (stereo not drawn) [Compound 75] | 0 (Level 0: the growth inhibition rate is less than 5%) | 0 (Level 0: the growth inhibition rate is less than 5%) | 5 (Level 5: the growth inhibition rate is greater than 85%) | 5 (Level 5: the growth inhibition rate is greater than 85%) | 5 (Level 5: the growth inhibition rate is greater than 85%) | 5 (Level 5: the growth inhibition rate is greater than 85%) | 5 (Level 5: the growth inhibition rate is greater than 85%) | 5 (Level 5: the growth inhibition rate is greater than 85%) | 5 (Level 5: the growth inhibition rate is greater than 85%) | 5 (Level 5: the growth inhibition rate is greater than 85%) |
| CC(Oc1nc(F)c(Cl)c(N)c1Cl)C(=O)ON=C(C(=O)NCc1ccco1)c1ccccc1 (stereo not drawn) [Compound 104] | 0 (Level 0: the growth inhibition rate is less than 5%) | 0 (Level 0: the growth inhibition rate is less than 5%) | 5 (Level 5: the growth inhibition rate is greater than 85%) | 5 (Level 5: the growth inhibition rate is greater than 85%) | 5 (Level 5: the growth inhibition rate is greater than 85%) | 5 (Level 5: the growth inhibition rate is greater than 85%) | 5 (Level 5: the growth inhibition rate is greater than 85%) | 5 (Level 5: the growth inhibition rate is greater than 85%) | 5 (Level 5: the growth inhibition rate is greater than 85%) | 5 (Level 5: the growth inhibition rate is greater than 85%) |
| CC(Oc1nc(F)c(Cl)c(N)c1Cl)C(=O)ON=C1CCCC1 (stereo not drawn) [Compound 117] | 0 (Level 0: the growth inhibition rate is less than 5%) | 0 (Level 0: the growth inhibition rate is less than 5%) | 5 (Level 5: the growth inhibition rate is greater than 85%) | 5 (Level 5: the growth inhibition rate is greater than 85%) | 5 (Level 5: the growth inhibition rate is greater than 85%) | 5 (Level 5: the growth inhibition rate is greater than 85%) | 5 (Level 5: the growth inhibition rate is greater than 85%) | 5 (Level 5: the growth inhibition rate is greater than 85%) | 5 (Level 5: the growth inhibition rate is greater than 85%) | 5 (Level 5: the growth inhibition rate is greater than 85%) |
